Molecules are shown by their SMILES.

What all share (assay type): in vivo
Assay [1] deals with Setaria faberi (SETFA). Put plainly: Post-emergence biological efficacy, glasshouse pot test. The conditions noted are these: 312 h, post-emergence, 1,000 g/ha, evaluated after 13 days (100=total damage; 0=no damage), read-out: Percentage damage caused to weed species, SETFA. In short, it runs like this:
(§1)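 Pot-grown weeds were sprayed 8 days after sowing with test compound in acetone/water (50:50) with 0.5% Tween 20 at 1000 or 250 g/ha. Glasshouse at 24/16° C day/night, 14 h light, 65% humidity. Damage scored 0-100 (100 = total damage) after 13 days.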

The test system of assay [2] is Solanum nigrum (SOLNI). The description is as above. As to conditions: 312 h, post-emergence, 1,000 g/ha, evaluated after 13 days (100=total damage; 0=no damage), read-out: Percentage damage caused to weed species, SOLNI. In short, it runs like this:
as §1

Assay [3] deals with Ipomea hederaceae (IPOHE). Described as above. The conditions noted are these: Ipomoea hederacea, 312 h; post-emergence, 1,000 g/ha, evaluated after 13 days (100=total damage; 0=no damage); read-out: Percentage damage caused to weed species, IPOHE. In short, it runs like this: as §1
The test system of assay [4] is Alopecurus myosuroides (ALOMY). The description is as above. As to conditions: 312 h, post-emergence, 1,000 g/ha, evaluated after 13 days (100=total damage; 0=no damage), read-out: Percentage damage caused to weed species, ALOMY. A digest of the protocol:
as §1

In assay [5] the test system is Amaranthus retoflexus (AMARE). The description is as above. The conditions noted are these: Amaranthus retroflexus, 312 h; post-emergence, 1,000 g/ha, evaluated after 13 days (100=total damage; 0=no damage); read-out: Percentage damage caused to weed species, AMARE. A digest of the protocol:
as §1

The test system of assay [6] is Echinochloa crus-galli (ECHCG). The description is as above. The conditions noted are these: 312 h, post-emergence, 1,000 g/ha, evaluated after 13 days (100=total damage; 0=no damage), read-out: Percentage damage caused to weed species, ECHCG. In short, it runs like this: as §1
Assay [7] has as its system Setaria faberi (SETFA). Put plainly: Pre-emergence biological efficacy, glasshouse pot test. The conditions noted are these: 312 h, pre-emergence, 1,000 g/ha, evaluated after 13 days (100=total damage; 0=no damage), read-out: Percentage damage SETFA. A digest of the protocol: (§2)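 One day after sowing in standard soil, pots were sprayed with compound in acetone/water (50:50) with 0.5% Tween 20, at 1000 or 250 g/ha. Plants grew at 24/16° C day/night, 14 h light, 65% humidity. Damage was scored after 13 days (0 = none, 100 = total).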

Assay [8] deals with Solanum nigrum (SOLNI). The assay is described as above. The conditions noted are these: 312 h, pre-emergence, 1,000 g/ha, evaluated after 13 days (100=total damage; 0=no damage), read-out: Percentage damage SOLNI. A digest of the protocol:
as §2

The subject of assay [9] is Ipomea hederaceae (IPOHE). The description is as above. The conditions noted are these: Ipomoea hederacea, 312 h; pre-emergence, 1,000 g/ha, evaluated after 13 days (100=total damage; 0=no damage); read-out: Percentage damage IPOHE. A digest of the protocol:
as §2

Assay [10] relates to Alopecurus myosuroides (ALOMY). The description is as above. As to conditions: 312 h, pre-emergence, 1,000 g/ha, evaluated after 13 days (100=total damage; 0=no damage), read-out: Percentage damage ALOMY. In short, it runs like this:
as §2

The subject of assay [11] is Amaranthus retoflexus (AMARE). The description is as above. The conditions noted are these: Amaranthus retroflexus, 312 h; pre-emergence, 1,000 g/ha, evaluated after 13 days (100=total damage; 0=no damage); read-out: Percentage damage AMARE. In short, it runs like this: as §2
Assay [12] deals with Echinochloa crus-galli (ECHCG). Described as above. The conditions noted are these: 312 h, pre-emergence, 1,000 g/ha, evaluated after 13 days (100=total damage; 0=no damage), read-out: Percentage damage ECHCG. A digest of the protocol:
as §2

On to `COC(=O)c1nc(C2CC2)nc(NCc2cccc(Br)c2)c1Cl` [Compound 4-68, 4-(3-Bromophenyl-methylamino)5-chloro-2-cyclopropyl-6-methoxycarbonyl-pyrimidine], for which the pest or weed control at 1000 g/ha is 90% in [1]; 90% in assay [2]; 100% in assay [3]; 20% in assay [4]; 100% in assay [5]; 60% in assay [6]. The pest or weed control at 1000 g/ha worked out at 10% in [7]; 20% in assay [8]; 60% in assay [9]; 10% in [10]; 50% in assay [11]; 10% in assay [12].
Consider `COC(=O)c1nc(C2CC2)nc(NCc2cccc(I)c2)c1Cl` [Compound 4-70, 5-Chloro-2-cyclopropyl-4-(3-iodophenylmethyl-amino)-6-methoxy-carbonylpyrimidine], for which the pest or weed control at 1000 g/ha in assay [1] was 90%; in [2], 100%; in [3], 100%; in assay [4] it was 20%; in assay [5] it was 100%; in assay [6] it was 70%. The pest or weed control at 1000 g/ha in assay [7] came out at 20%; in assay [8], 30%; in [9] it was 60%; in assay [10], 10%; in [11] it was 40%; in assay [12], 30%.
For the compound `COC(=O)c1nc(C2CC2)nc(NCc2ccccc2C)c1Cl` [Compound 4-71, 5-Chloro-2-cyclopropyl-6-methoxycarbonyl-4-(2-methylphenyl-methylamino)-pyrimidine], the pest or weed control at 1000 g/ha was 80% in [1]; 90% in assay [2]; 100% in [3]; 20% in [4]; 100% in assay [5]; 60% in assay [6]. The pest or weed control at 1000 g/ha in assay [7] came to 20%; in assay [8], 20%; in assay [9] it was 70%; in assay [10], 20%; in assay [11], 90%; in [12] it was 20%.
On to `COC(=O)c1nc(C2CC2)nc(NCc2cccc(C)c2)c1Cl` [Compound 4-72, 5-Chloro-2-cyclopropyl-6-methoxycarbonyl-4-(3-methylphenyl-methylamino)-pyrimidine], for which the pest or weed control at 1000 g/ha in [1] was 30%; in [2], 100%; in assay [3], 100%; in assay [4] it was 10%; in assay [5], 100%; in assay [6] it was 50%. Also, the pest or weed control at 1000 g/ha in [7] worked out at 10%; in [8] it was 40%; in [9] it was 40%; in assay [10], 10%; in [11], 60%; in [12], 40%.
For `COC(=O)c1nc(C2CC2)nc(NCc2ccc(C)cc2)c1Cl` [Compound 4-73, 5-Chloro-2-cyclopropyl-6-methoxycarbonyl-4-(4-methylphenyl-methylamino)-pyrimidine], the pest or weed control at 1000 g/ha in assay [1] stood at 80%; in [2] it was 100%; in assay [3], 100%; in assay [4], 20%; in assay [5] it was 100%; in assay [6], 60%. Moreover, the pest or weed control at 1000 g/ha came out at 20% in assay [7]; 60% in [8]; 80% in assay [9]; 10% in assay [10]; 70% in assay [11]; 30% in [12].
On to `COC(=O)c1nc(C2CC2)nc(NCc2ccc(C(C)C)cc2)c1Cl` [Compound 4-74, 5-Chloro-2-cyclopropyl-4-(4-isopropylphenyl-methlamino)-6-methoxycarbonyl-pyrimidine], for which the pest or weed control at 1000 g/ha was 80% in [1]; 100% in assay [2]; 100% in [3]; 20% in assay [4]; 90% in assay [5]; 70% in assay [6]. Further, the pest or weed control at 1000 g/ha in assay [7] was determined as 10%; in assay [8], 70%; in [9], 60%; in assay [10], 10%; in [11] it was 80%; in [12] it was 30%.
For `COC(=O)c1nc(C2CC2)nc(NCc2ccccc2C(F)(F)F)c1Cl` [Compound 4-75, 5-Chloro-2-cyclopropyl-6-methoxycarbonyl-4-(2-trifluoromethyl-phenylmethyl-amino)-pyrimidine], the pest or weed control at 1000 g/ha in [1] worked out at 90%; in assay [2] it was 100%; in assay [3], 100%; in assay [4], 20%; in [5] it was 100%; in assay [6], 50%. The pest or weed control at 1000 g/ha in assay [7] came to 10%; in assay [8] it was 30%; in [9] it was 20%; in assay [10], 10%; in assay [11], 50%; in [12] it was 0%.
As to `COC(=O)c1nc(C2CC2)nc(NCc2cccc(C(F)(F)F)c2)c1Cl` [Compound 4-76, 5-Chloro-2-cyclopropyl-6-methoxycarbonyl-4-(3-trifluoromethyl-phenylmethyl-amino)pyrimidine], the pest or weed control at 1000 g/ha in [1] was 90%; in assay [2], 100%; in assay [3], 100%; in [4] it was 40%; in assay [5], 100%; in assay [6], 70%. Besides, the pest or weed control at 1000 g/ha in assay [7] is 50%; in [8], 60%; in assay [9], 70%; in assay [10], 40%; in assay [11], 60%; in assay [12] it was 60%.
Take `COC(=O)c1nc(C2CC2)nc(NCc2ccc(C(F)(F)F)cc2)c1Cl` [Compound 4-77, 5-Chloro-2-cyclopropyl-6-methoxycarbonyl-4-(4-trifluoromethyl-phenylmethyl-amino)pyrimidine]: the pest or weed control at 1000 g/ha in assay [1] turned out to be 90%; in assay [2], 100%; in [3], 100%; in assay [4], 20%; in assay [5], 100%; in [6], 90%. In addition, the pest or weed control at 1000 g/ha in [7] is 0%; in assay [8], 40%; in assay [9] it was 40%; in [10], 0%; in assay [11] it was 50%; in assay [12] it was 30%.
